Laboratory results taken from ChEMBL document CHEMBL1909046, “DrugMatrix in vitro pharmacology data”.
pIC50: −log10 of the molar value.

System: not listed separately
Assay: DRUGMATRIX: Tumor Necrosis Factor (TNF), Non-Selective radioligand binding (ligand: [125I] TNF-alpha)
Type: cell membranes, Membrane
Settings: u-937; Not Active = under 50% inhibition at 10 µM

SMILES	IC50	Ki
O=c1[nH]cnc2c1ncn2[C@H]1CC[C@@H](CO)O1 [DIDANOSINE]	Not Active	Not Active
CC(C)(c1ccc(O)cc1)c1ccc(O)cc1 [BISPHENOL A]	Not Active	Not Active
ClC1=C(Cl)[C@]2(Cl)[C@@H]3[C@@H]4C[C@@H]([C@H]5O[C@@H]45)[C@@H]3[C@@]1(Cl)C2(Cl)Cl [DIELDRIN]	Not Active	Not Active
c1ccc(Cn2ccnc2)cc1	Not Active	Not Active
C[C@]12CC[C@@H](O)C[C@@H]1CC[C@@H]1[C@@H]2CC[C@]2(C)C(=O)CC[C@@H]12 [ANDROSTERONE]	Not Active	Not Active
CC12CCC(CC1)C(C)(C)O2 [EUCALYPTOL]	Not Active	Not Active
Nc1nc(N)c2nc(CNc3ccc(C(=O)N[C@@H](CCC(=O)O)C(=O)O)cc3)cnc2n1 [AMINOPTERIN]	Not Active	Not Active
Nc1ccc(Cc2ccc(N)cc2)cc1	Not Active	Not Active
COc1ccccc1OCCNCC(O)COc1cccc2[nH]c3ccccc3c12 (centres undefined) [CARVEDILOL]	Not Active	Not Active
CCN1CCN(c2cc3c(cc2F)c(=O)c(C(=O)O)cn3C2CC2)CC1 [ENROFLOXACIN]	Not Active	Not Active
CC(C)Cc1ccc([C@H](C)C(=O)O)cc1 [DEXIBUPROFEN]	Not Active	Not Active

Biological target: T1, Polyunsaturated fatty acid lipoxygenase ALOX15 (Oryctolagus cuniculus, UniProt P12530);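 further: inhibition of 15-lipoxygenase enzyme activity measured with linoleic acid as the substrate; in other assays of this panel Not Active means under 50% inhibition at 10 µM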
T1 sequence (P12530 whole entry): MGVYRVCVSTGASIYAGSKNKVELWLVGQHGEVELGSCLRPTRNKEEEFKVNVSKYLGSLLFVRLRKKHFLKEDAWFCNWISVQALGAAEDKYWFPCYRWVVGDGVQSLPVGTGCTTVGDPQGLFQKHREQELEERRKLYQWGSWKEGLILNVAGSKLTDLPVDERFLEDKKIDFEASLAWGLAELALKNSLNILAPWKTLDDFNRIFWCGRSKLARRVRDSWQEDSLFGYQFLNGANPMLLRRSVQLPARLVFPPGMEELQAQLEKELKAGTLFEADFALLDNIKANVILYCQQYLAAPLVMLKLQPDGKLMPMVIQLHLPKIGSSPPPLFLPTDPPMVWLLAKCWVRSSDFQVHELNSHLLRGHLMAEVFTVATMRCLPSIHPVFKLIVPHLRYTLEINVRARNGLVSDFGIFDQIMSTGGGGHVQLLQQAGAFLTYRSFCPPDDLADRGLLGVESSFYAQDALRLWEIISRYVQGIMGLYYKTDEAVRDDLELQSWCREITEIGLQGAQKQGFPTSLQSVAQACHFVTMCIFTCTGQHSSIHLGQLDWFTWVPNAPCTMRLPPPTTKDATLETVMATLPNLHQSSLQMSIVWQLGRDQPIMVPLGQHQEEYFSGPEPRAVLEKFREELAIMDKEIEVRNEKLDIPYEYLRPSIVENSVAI
Assay: biochemical
Type: tissue-based, Reticulocytes
Settings: read-out: IC50

SMILES	pIC50
CC(C)(c1ccc(O)cc1)c1ccc(O)cc1 [BISPHENOL A]	5.88

Same assay, conditions: reticulocytes

SMILES	IC50
O=c1[nH]cnc2c1ncn2[C@H]1CC[C@@H](CO)O1 [DIDANOSINE]	Not Active
ClC1=C(Cl)[C@]2(Cl)[C@@H]3[C@@H]4C[C@@H]([C@H]5O[C@@H]45)[C@@H]3[C@@]1(Cl)C2(Cl)Cl [DIELDRIN]	Not Active
c1ccc(Cn2ccnc2)cc1	Not Active
C[C@]12CC[C@@H](O)C[C@@H]1CC[C@@H]1[C@@H]2CC[C@]2(C)C(=O)CC[C@@H]12 [ANDROSTERONE]	Not Active
CC12CCC(CC1)C(C)(C)O2 [EUCALYPTOL]	Not Active
Nc1nc(N)c2nc(CNc3ccc(C(=O)N[C@@H](CCC(=O)O)C(=O)O)cc3)cnc2n1 [AMINOPTERIN]	Not Active
Nc1ccc(Cc2ccc(N)cc2)cc1	Not Active
COc1ccccc1OCCNCC(O)COc1cccc2[nH]c3ccccc3c12 (centres undefined) [CARVEDILOL]	Not Active
CCN1CCN(c2cc3c(cc2F)c(=O)c(C(=O)O)cn3C2CC2)CC1 [ENROFLOXACIN]	Not Active
CC(C)Cc1ccc([C@H](C)C(=O)O)cc1 [DEXIBUPROFEN]	Not Active

Biological target: Histamine H2 receptor (Homo sapiens, UniProt P25021); further: in other assays of this panel Not Active means under 50% inhibition at 10 µM
Assay: not given
Type: cell membranes, CHO-K1, Membrane
Settings: cho-k1

Histamine H2 receptor, sequence (P25021 whole entry): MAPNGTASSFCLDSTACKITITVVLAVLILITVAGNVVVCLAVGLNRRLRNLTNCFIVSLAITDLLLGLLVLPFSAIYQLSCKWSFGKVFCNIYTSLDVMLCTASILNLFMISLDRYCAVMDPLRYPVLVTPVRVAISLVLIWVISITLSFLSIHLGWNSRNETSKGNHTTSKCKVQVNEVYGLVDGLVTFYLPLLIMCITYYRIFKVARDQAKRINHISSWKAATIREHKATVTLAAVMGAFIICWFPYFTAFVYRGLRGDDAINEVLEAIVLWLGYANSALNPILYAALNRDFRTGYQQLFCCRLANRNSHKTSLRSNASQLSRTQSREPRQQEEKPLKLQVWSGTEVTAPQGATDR

SMILES	IC50
O=c1[nH]cnc2c1ncn2[C@H]1CC[C@@H](CO)O1 [DIDANOSINE]	Not Active
CC(C)(c1ccc(O)cc1)c1ccc(O)cc1 [BISPHENOL A]	Not Active
ClC1=C(Cl)[C@]2(Cl)[C@@H]3[C@@H]4C[C@@H]([C@H]5O[C@@H]45)[C@@H]3[C@@]1(Cl)C2(Cl)Cl [DIELDRIN]	Not Active
c1ccc(Cn2ccnc2)cc1	Not Active
C[C@]12CC[C@@H](O)C[C@@H]1CC[C@@H]1[C@@H]2CC[C@]2(C)C(=O)CC[C@@H]12 [ANDROSTERONE]	Not Active
CC12CCC(CC1)C(C)(C)O2 [EUCALYPTOL]	Not Active
Nc1nc(N)c2nc(CNc3ccc(C(=O)N[C@@H](CCC(=O)O)C(=O)O)cc3)cnc2n1 [AMINOPTERIN]	Not Active
Nc1ccc(Cc2ccc(N)cc2)cc1	Not Active
COc1ccccc1OCCNCC(O)COc1cccc2[nH]c3ccccc3c12 (centres undefined) [CARVEDILOL]	Not Active
CCN1CCN(c2cc3c(cc2F)c(=O)c(C(=O)O)cn3C2CC2)CC1 [ENROFLOXACIN]	Not Active
CC(C)Cc1ccc([C@H](C)C(=O)O)cc1 [DEXIBUPROFEN]	Not Active

Biological target: T2, Neuropeptide Y receptor type 1 (Homo sapiens, UniProt P25929); further: in other assays of this panel Not Active means under 50% inhibition at 10 µM
T2 sequence (P25929 whole entry): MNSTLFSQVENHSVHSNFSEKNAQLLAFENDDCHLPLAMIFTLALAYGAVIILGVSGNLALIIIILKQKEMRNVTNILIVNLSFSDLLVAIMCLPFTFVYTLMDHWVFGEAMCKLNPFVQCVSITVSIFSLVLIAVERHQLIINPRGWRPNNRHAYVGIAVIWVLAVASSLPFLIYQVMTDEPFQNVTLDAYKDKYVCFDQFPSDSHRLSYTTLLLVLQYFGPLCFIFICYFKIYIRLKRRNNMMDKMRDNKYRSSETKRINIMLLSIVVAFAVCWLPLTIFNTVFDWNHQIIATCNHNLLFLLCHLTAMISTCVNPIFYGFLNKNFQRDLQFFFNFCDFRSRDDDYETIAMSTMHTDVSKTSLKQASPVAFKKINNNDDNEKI
Assay: not given
Type: cell membranes, Membrane
Settings: sk-n-mc

SMILES	IC50
O=c1[nH]cnc2c1ncn2[C@H]1CC[C@@H](CO)O1 [DIDANOSINE]	Not Active
CC(C)(c1ccc(O)cc1)c1ccc(O)cc1 [BISPHENOL A]	Not Active
ClC1=C(Cl)[C@]2(Cl)[C@@H]3[C@@H]4C[C@@H]([C@H]5O[C@@H]45)[C@@H]3[C@@]1(Cl)C2(Cl)Cl [DIELDRIN]	Not Active
c1ccc(Cn2ccnc2)cc1	Not Active
C[C@]12CC[C@@H](O)C[C@@H]1CC[C@@H]1[C@@H]2CC[C@]2(C)C(=O)CC[C@@H]12 [ANDROSTERONE]	Not Active
CC12CCC(CC1)C(C)(C)O2 [EUCALYPTOL]	Not Active
Nc1nc(N)c2nc(CNc3ccc(C(=O)N[C@@H](CCC(=O)O)C(=O)O)cc3)cnc2n1 [AMINOPTERIN]	Not Active
Nc1ccc(Cc2ccc(N)cc2)cc1	Not Active
COc1ccccc1OCCNCC(O)COc1cccc2[nH]c3ccccc3c12 (centres undefined) [CARVEDILOL]	Not Active
CCN1CCN(c2cc3c(cc2F)c(=O)c(C(=O)O)cn3C2CC2)CC1 [ENROFLOXACIN]	Not Active
CC(C)Cc1ccc([C@H](C)C(=O)O)cc1 [DEXIBUPROFEN]	Not Active

Biological target: T3, Cathepsin G (Homo sapiens, UniProt P08311);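 further: inhibition of Cathepsin G enzyme activity, tested on an AMC-conjugated peptide substrate; in other assays of this panel Not Active means under 50% inhibition at 10 µM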
T3 sequence (P08311 whole entry): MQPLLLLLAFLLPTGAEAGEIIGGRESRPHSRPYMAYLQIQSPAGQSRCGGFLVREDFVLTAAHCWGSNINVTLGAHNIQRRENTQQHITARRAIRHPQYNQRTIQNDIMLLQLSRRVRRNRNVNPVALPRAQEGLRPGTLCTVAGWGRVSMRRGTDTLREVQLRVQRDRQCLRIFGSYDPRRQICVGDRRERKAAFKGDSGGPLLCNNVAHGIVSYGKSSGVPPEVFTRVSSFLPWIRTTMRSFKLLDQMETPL
Assay: biochemical
Type: tissue-based, Neutrophil
Settings: neutrophil

SMILES	IC50
O=c1[nH]cnc2c1ncn2[C@H]1CC[C@@H](CO)O1 [DIDANOSINE]	Not Active
CC(C)(c1ccc(O)cc1)c1ccc(O)cc1 [BISPHENOL A]	Not Active
ClC1=C(Cl)[C@]2(Cl)[C@@H]3[C@@H]4C[C@@H]([C@H]5O[C@@H]45)[C@@H]3[C@@]1(Cl)C2(Cl)Cl [DIELDRIN]	Not Active
c1ccc(Cn2ccnc2)cc1	Not Active
C[C@]12CC[C@@H](O)C[C@@H]1CC[C@@H]1[C@@H]2CC[C@]2(C)C(=O)CC[C@@H]12 [ANDROSTERONE]	Not Active
CC12CCC(CC1)C(C)(C)O2 [EUCALYPTOL]	Not Active
Nc1nc(N)c2nc(CNc3ccc(C(=O)N[C@@H](CCC(=O)O)C(=O)O)cc3)cnc2n1 [AMINOPTERIN]	Not Active
Nc1ccc(Cc2ccc(N)cc2)cc1	Not Active
COc1ccccc1OCCNCC(O)COc1cccc2[nH]c3ccccc3c12 (centres undefined) [CARVEDILOL]	Not Active
CCN1CCN(c2cc3c(cc2F)c(=O)c(C(=O)O)cn3C2CC2)CC1 [ENROFLOXACIN]	Not Active
CC(C)Cc1ccc([C@H](C)C(=O)O)cc1 [DEXIBUPROFEN]	Not Active

Biological target: T4, C-X-C chemokine receptor type 1 (Homo sapiens, UniProt P25024); further: in other assays of this panel Not Active means under 50% inhibition at 10 µM
T4 sequence (P25024 whole entry): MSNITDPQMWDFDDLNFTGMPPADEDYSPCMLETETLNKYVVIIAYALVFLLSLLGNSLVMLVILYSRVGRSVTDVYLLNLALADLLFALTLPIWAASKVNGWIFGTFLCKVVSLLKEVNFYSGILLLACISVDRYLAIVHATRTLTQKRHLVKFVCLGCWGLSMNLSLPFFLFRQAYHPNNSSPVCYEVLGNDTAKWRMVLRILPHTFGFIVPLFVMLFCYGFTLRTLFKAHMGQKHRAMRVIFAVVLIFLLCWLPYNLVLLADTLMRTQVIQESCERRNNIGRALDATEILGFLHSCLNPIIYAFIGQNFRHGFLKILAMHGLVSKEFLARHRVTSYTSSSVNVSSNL
Assay: not given
Settings: not given

SMILES	IC50
O=c1[nH]cnc2c1ncn2[C@H]1CC[C@@H](CO)O1 [DIDANOSINE]	Not Active
CC(C)(c1ccc(O)cc1)c1ccc(O)cc1 [BISPHENOL A]	Not Active
ClC1=C(Cl)[C@]2(Cl)[C@@H]3[C@@H]4C[C@@H]([C@H]5O[C@@H]45)[C@@H]3[C@@]1(Cl)C2(Cl)Cl [DIELDRIN]	Not Active
c1ccc(Cn2ccnc2)cc1	Not Active
C[C@]12CC[C@@H](O)C[C@@H]1CC[C@@H]1[C@@H]2CC[C@]2(C)C(=O)CC[C@@H]12 [ANDROSTERONE]	Not Active
CC12CCC(CC1)C(C)(C)O2 [EUCALYPTOL]	Not Active
Nc1nc(N)c2nc(CNc3ccc(C(=O)N[C@@H](CCC(=O)O)C(=O)O)cc3)cnc2n1 [AMINOPTERIN]	Not Active
Nc1ccc(Cc2ccc(N)cc2)cc1	Not Active
COc1ccccc1OCCNCC(O)COc1cccc2[nH]c3ccccc3c12 (centres undefined) [CARVEDILOL]	Not Active
CCN1CCN(c2cc3c(cc2F)c(=O)c(C(=O)O)cn3C2CC2)CC1 [ENROFLOXACIN]	Not Active
CC(C)Cc1ccc([C@H](C)C(=O)O)cc1 [DEXIBUPROFEN]	Not Active

System: not listed separately
Assay: DRUGMATRIX: GABAA, Flunitrazepam, Central radioligand binding (ligand: [3H] Flunitrazepam)
Type: cell membranes, Rattus norvegicus, Wistar, Brain, Membrane
Settings: Not Active = under 50% inhibition at 10 µM

SMILES	IC50	Ki
O=c1[nH]cnc2c1ncn2[C@H]1CC[C@@H](CO)O1 [DIDANOSINE]	Not Active	Not Active
CC(C)(c1ccc(O)cc1)c1ccc(O)cc1 [BISPHENOL A]	Not Active	Not Active
ClC1=C(Cl)[C@]2(Cl)[C@@H]3[C@@H]4C[C@@H]([C@H]5O[C@@H]45)[C@@H]3[C@@]1(Cl)C2(Cl)Cl [DIELDRIN]	Not Active	Not Active
c1ccc(Cn2ccnc2)cc1	Not Active	Not Active
C[C@]12CC[C@@H](O)C[C@@H]1CC[C@@H]1[C@@H]2CC[C@]2(C)C(=O)CC[C@@H]12 [ANDROSTERONE]	Not Active	Not Active
CC12CCC(CC1)C(C)(C)O2 [EUCALYPTOL]	Not Active	Not Active
Nc1nc(N)c2nc(CNc3ccc(C(=O)N[C@@H](CCC(=O)O)C(=O)O)cc3)cnc2n1 [AMINOPTERIN]	Not Active	Not Active
Nc1ccc(Cc2ccc(N)cc2)cc1	Not Active	Not Active
COc1ccccc1OCCNCC(O)COc1cccc2[nH]c3ccccc3c12 (centres undefined) [CARVEDILOL]	Not Active	Not Active
CCN1CCN(c2cc3c(cc2F)c(=O)c(C(=O)O)cn3C2CC2)CC1 [ENROFLOXACIN]	Not Active	Not Active
CC(C)Cc1ccc([C@H](C)C(=O)O)cc1 [DEXIBUPROFEN]	Not Active	Not Active
